From PubChem BioAssay AID248 (DTP/NCI, 2004)
Inconclusive results and toxic doses are left out. Cut-off read from the data, not from the text of the source: active = T/C of 150% or more; inactive = T/C below 125%.

Test system: L1210 leukemia ip in BDF1 mice, survival T/C
Experiment: NCI In Vivo Anticancer Drug Screen. Data for tumor model L1210 Leukemia (intraperitoneal) in B6D2F1 (BDF1) mice
Conditions: endpoint: mean survival time, higher = longer survival
Outline: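 Antitumor effect is assessed in tumor-bearing animals. Survival in the compound arm is compared with a vehicle-dosed control arm and expressed as their quotient.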

[1] = dose: 100.0 mg/kg/injection, schedule: Q01DX009 (ip), vehicle: Klucel (hydroxypropylcellulose) (HPC)
[2] = dose: 100.0 mg/kg/injection, schedule: Q04DX002 (ip), vehicle: saline
[3] = dose: 100.0 mg/kg/injection, schedule: Q01DX009 (ip), vehicle: saline with Tween-80
[4] = dose: 100.0 mg/kg/injection, schedule: Q04DX003 (ip), vehicle: saline with Tween-80
[5] = dose: 200.0 mg/kg/injection, schedule: Q01DX009 (ip), vehicle: saline with Tween-80
[6] = dose: 200.0 mg/kg/injection, schedule: Q04DX003 (ip), vehicle: saline with Tween-80
[7] = dose: 400.0 mg/kg/injection, schedule: Q01DX009 (ip), vehicle: saline with Tween-80
[8] = dose: 400.0 mg/kg/injection, schedule: Q04DX003 (ip), vehicle: saline with Tween-80
[9] = dose: 100.0 mg/kg/injection, schedule: Q04DX003 (ip), vehicle: Klucel (hydroxypropylcellulose) (HPC)
[10] = dose: 200.0 mg/kg/injection, schedule: Q04DX003 (ip), vehicle: Klucel (hydroxypropylcellulose) (HPC)
[11] = dose: 400.0 mg/kg/injection, schedule: Q04DX003 (ip), vehicle: Klucel (hydroxypropylcellulose) (HPC)
[12] = dose: 100.0 mg/kg/injection, schedule: Q01DX001 (ip), vehicle: carboxymethylcellulose (CMC)
[13] = dose: 200.0 mg/kg/injection, schedule: Q01DX001 (ip), vehicle: carboxymethylcellulose (CMC)
[14] = dose: 400.0 mg/kg/injection, schedule: Q01DX001 (ip), vehicle: carboxymethylcellulose (CMC)
[15] = dose: 100.0 mg/kg/injection, schedule: Q01DX001 (ip), vehicle: saline
[16] = dose: 200.0 mg/kg/injection, schedule: Q01DX001 (ip), vehicle: saline

Measured: T/C

O=c1c(Br)c[nH]cc1Br
inactive: dose: 12.5 mg/kg/injection, schedule: Q01DX009 (ip), vehicle: Klucel (hydroxypropylcellulose) (HPC) 91 % of control | dose: 25.0 mg/kg/injection, schedule: Q01DX009 (ip), vehicle: Klucel (hydroxypropylcellulose) (HPC) 111 % of control | dose: 50.0 mg/kg/injection, schedule: Q01DX009 (ip), vehicle: Klucel (hydroxypropylcellulose) (HPC) 91 % of control | [1] 98 % of control

C/C=C/C(OCC)OCC
inactive: dose: 25.0 mg/kg/injection, schedule: Q01DX009 (ip), vehicle: water 105 % of control | dose: 50.0 mg/kg/injection, schedule: Q01DX009 (ip), vehicle: water 111 % of control | dose: 100.0 mg/kg/injection, schedule: Q01DX009 (ip), vehicle: water 106 % of control

O=C(O)CCc1cccc(O)c1
inactive: dose: 25.0 mg/kg/injection, schedule: Q04DX002 (ip), vehicle: saline 111 % of control | dose: 50.0 mg/kg/injection, schedule: Q04DX002 (ip), vehicle: saline 111 % of control | [2] 101 % of control

CC(=O)Oc1oc(-c2ccccc2)nc1-c1ccccc1
inactive: [3] 108 % of control | [4] 98 % of control | [5] 94 % of control | [6] 100 % of control | [7] 97 % of control | [8] 104 % of control

O=C(OCC(COC(=O)c1ccccc1)(COC(=O)c1ccccc1)[N+](=O)[O-])c1ccccc1
inactive: [9] 92 % of control | [10] 92 % of control | [11] 94 % of control

CCNC(=O)Nc1ccc(C)cc1
inactive: [12] 105 % of control | [13] 97 % of control | [14] 103 % of control

Cc1ccccc1N=Nc1c(O)n(-c2ccc(I)cc2)c(=S)n(-c2ccccc2)c1=O
inactive: dose: 37.5 mg/kg/injection, schedule: Q01DX001 (ip), vehicle: Klucel (hydroxypropylcellulose) (HPC) 103 % of control | dose: 75.0 mg/kg/injection, schedule: Q01DX001 (ip), vehicle: Klucel (hydroxypropylcellulose) (HPC) 113 % of control | dose: 150.0 mg/kg/injection, schedule: Q01DX001 (ip), vehicle: Klucel (hydroxypropylcellulose) (HPC) 105 % of control

CCOC(=O)c1occ(Cl)c1Cl
inactive: [15] 107 % of control | [16] 113 % of control

CCCCCCCCCCCCCCCc1cc(=O)n(C)n1C
inactive: [4] 93 % of control | [6] 94 % of control

COC(=O)Cn1nnc2ccccc21
inactive: dose: 50.0 mg/kg/injection, schedule: Q01DX009 (ip), vehicle: saline 97 % of control | dose: 100.0 mg/kg/injection, schedule: Q01DX009 (ip), vehicle: saline 105 % of control | dose: 200.0 mg/kg/injection, schedule: Q01DX009 (ip), vehicle: saline 87 % of control

C=CCNC(=O)c1ccc[n+](CC(=O)NCCCCCCCCCC)c1
inactive: dose: 12.5 mg/kg/injection, schedule: Q04DX003 (ip), vehicle: saline with Tween-80 95 % of control | dose: 25.0 mg/kg/injection, schedule: Q04DX003 (ip), vehicle: saline with Tween-80 101 % of control | dose: 50.0 mg/kg/injection, schedule: Q04DX003 (ip), vehicle: saline with Tween-80 94 % of control

COc1ccc(C(=O)c2ccc(C)cc2)cc1
inactive: [1] 102 % of control | [9] 95 % of control | dose: 200.0 mg/kg/injection, schedule: Q01DX009 (ip), vehicle: Klucel (hydroxypropylcellulose) (HPC) 105 % of control | [10] 101 % of control | dose: 400.0 mg/kg/injection, schedule: Q01DX009 (ip), vehicle: Klucel (hydroxypropylcellulose) (HPC) 96 % of control | [11] 102 % of control

CC(C(=O)O)C1(O)CCCCC1 (stereo not drawn)
inactive: dose: 5.0 mg/kg/injection, schedule: Q04DX003 (ip), vehicle: saline with Tween-80 96 % of control | dose: 10.0 mg/kg/injection, schedule: Q04DX003 (ip), vehicle: saline with Tween-80 89 % of control | dose: 20.0 mg/kg/injection, schedule: Q04DX003 (ip), vehicle: saline with Tween-80 87 % of control

C=CCc1ccc2c(c1)OC(CO)CO2 (stereo not drawn) (tested in a mixture with another compound)
inactive: [15] 90 % of control | [16] 93 % of control | dose: 400.0 mg/kg/injection, schedule: Q01DX001 (ip), vehicle: saline 93 % of control

CCN(CC)c1ccc(/C=C/C=O)cc1
inactive: dose: 50.0 mg/kg/injection, schedule: Q01DX009 (ip), vehicle: gum acacia 103 % of control | dose: 100.0 mg/kg/injection, schedule: Q01DX009 (ip), vehicle: gum acacia 103 % of control | dose: 100.0 mg/kg/injection, schedule: Q04DX003 (ip), vehicle: gum acacia 93 % of control | dose: 200.0 mg/kg/injection, schedule: Q01DX009 (ip), vehicle: gum acacia 91 % of control | dose: 200.0 mg/kg/injection, schedule: Q04DX003 (ip), vehicle: gum acacia 96 % of control

NC(N)=NNCCOc1c(Cl)cccc1Cl
inactive: dose: 25.0 mg/kg/injection, schedule: Q01DX001 (ip), vehicle: carboxymethylcellulose (CMC) 116 % of control | dose: 50.0 mg/kg/injection, schedule: Q01DX001 (ip), vehicle: carboxymethylcellulose (CMC) 101 % of control | [12] 111 % of control

C1SCC12CSC2
inactive: dose: 6.25 mg/kg/injection, schedule: Q01DX001 (ip), vehicle: saline with Tween-80 93 % of control | dose: 12.5 mg/kg/injection, schedule: Q01DX001 (ip), vehicle: saline with Tween-80 96 % of control | dose: 25.0 mg/kg/injection, schedule: Q01DX001 (ip), vehicle: saline with Tween-80 104 % of control

COC(=O)C(=C(c1ccccc1)c1ccccc1)c1ccccc1C(=O)O
inactive: [3] 90 % of control | [4] 101 % of control | [5] 88 % of control | [6] 93 % of control | [7] 96 % of control | [8] 92 % of control

CCCSc1ccccn1
inactive: dose: 25.0 mg/kg/injection, schedule: Q04DX003 (ip), vehicle: saline 101 % of control | dose: 50.0 mg/kg/injection, schedule: Q04DX003 (ip), vehicle: saline 93 % of control | dose: 100.0 mg/kg/injection, schedule: Q04DX003 (ip), vehicle: saline 95 % of control

COc1cc2c(cc1OC)-c1c(OC)c(OC)cc3c1[C@H](C2)N(C)CC3
inactive: [12] 96 % of control | [13] 100 % of control | [14] 100 % of control

Cc1[nH]c(=O)[nH]c(=O)c1CN1CCOCC1
inactive: [4] 102 % of control | [6] 113 % of control | [8] 100 % of control

Cc1ccc(C[P+](c2ccccc2)(c2ccccc2)c2ccccc2)cc1
inactive: dose: 2.0 mg/kg/injection, schedule: Q01DX015 (ip), vehicle: saline 97 % of control | dose: 4.0 mg/kg/injection, schedule: Q01DX015 (ip), vehicle: saline 100 % of control | dose: 5.0 mg/kg/injection, schedule: Q01DX001 (ip), vehicle: saline 102 % of control | dose: 8.0 mg/kg/injection, schedule: Q01DX015 (ip), vehicle: saline 100 % of control | dose: 10.0 mg/kg/injection, schedule: Q01DX001 (ip), vehicle: saline 104 % of control | dose: 20.0 mg/kg/injection, schedule: Q01DX001 (ip), vehicle: saline 93 % of control | dose: 40.0 mg/kg/injection, schedule: Q01DX001 (ip), vehicle: saline 96 % of control

Cc1cc2c(cc1C)C(O)C(N1CCCCC1)CCC2 (stereo not drawn)
inactive: [4] 100 % of control | [6] 92 % of control | [8] 90 % of control

O=C(O)c1cc2ccccc2c2c1ccc1ccccc12
inactive: dose: 50.0 mg/kg/injection, schedule: Q01DX001 (ip), vehicle: Klucel (hydroxypropylcellulose) (HPC) 92 % of control | dose: 100.0 mg/kg/injection, schedule: Q01DX001 (ip), vehicle: Klucel (hydroxypropylcellulose) (HPC) 93 % of control | dose: 200.0 mg/kg/injection, schedule: Q01DX001 (ip), vehicle: Klucel (hydroxypropylcellulose) (HPC) 93 % of control

CCCCOCN(C(=O)CCl)c1c(CC)cccc1CC
inactive: [3] 101 % of control | [5] 110 % of control | [7] 89 % of control

CC(=O)OCCCC[N+](=O)[O-]
inactive: [12] 98 % of control | [13] 98 % of control | [14] 98 % of control

O=C1CCC2=C(CCCCCCCCCC2)N1c1ccccc1
inactive: [4] 105 % of control | [6] 105 % of control | [8] 94 % of control

NCCSC12CC3CC(CC(C3)C1)C2
inactive: [2] 90 % of control | dose: 200.0 mg/kg/injection, schedule: Q04DX002 (ip), vehicle: saline 94 % of control | dose: 400.0 mg/kg/injection, schedule: Q04DX002 (ip), vehicle: saline 96 % of control
